# Assay results as given in the kinase profiling compilation of Christmann-Franck et al. (2016).
# How the values were obtained:
# Assay in all cases: KINOMEscan competition binding
# Settings in all cases: compound 10.0 µM
# DAPK1 (human) = DAPK1 (human) (UniProt P53355)
# DAPK2 (human) = DAPK2 (human) (UniProt Q9UIK4)
# DAPK3 (human) = DAPK3 (human) (UniProt O43293)
# PIK3CB (human) = PIK3CB (human) (UniProt P42338)
# PIM2 (human) = PIM2 (human) (UniProt Q9P1W9)
# PIM3 (human) = PIM3 (human) (UniProt Q86V86)
# RPS6KA4 KD2 (human) = RPS6KA4 KD2 (human) (UniProt O75676)
# STK17B (human) = STK17B (human) (UniProt O94768)
# [1] = target: TYK2 JH2 pseudokinase (human) (UniProt P29597)
# ZAP70 (human) = ZAP70 (human) (UniProt P43403)
# AAK1 (human) = AAK1 (human) (UniProt Q2M2I8)
# ACVR2A (human) = ACVR2A (human) (UniProt P27037)
# ACVR2B (human) = ACVR2B (human) (UniProt Q13705)
# BMP2K (human) = BMP2K (human) (UniProt Q9NSY1)
# BMPR1B (human) = BMPR1B (human) (UniProt O00238)
# CDK7 (human) = CDK7 (human) (UniProt P50613)
# CHUK (human) = CHUK (human) (UniProt O15111)
# CLK1 (human) = CLK1 (human) (UniProt P49759)
# CLK2 (human) = CLK2 (human) (UniProt P49760)
# CLK3 (human) = CLK3 (human) (UniProt P49761)
# CLK4 (human) = CLK4 (human) (UniProt Q9HAZ1)
# CSNK2A1 (human) = CSNK2A1 (human) (UniProt P68400)
# CSNK2A2 (human) = CSNK2A2 (human) (UniProt P19784)
# DYRK1B (human) = DYRK1B (human) (UniProt Q9Y463)
# HIPK1 (human) = HIPK1 (human) (UniProt Q86Z02)
# MAP2K3 (human) = MAP2K3 (human) (UniProt P46734)
# MAP2K4 (human) = MAP2K4 (human) (UniProt P45985)
# MAPK15 (human) = MAPK15 (human) (UniProt Q8TD08)
# MINK1 (human) = MINK1 (human) (UniProt Q8N4C8)
# NEK2 (human) = NEK2 (human) (UniProt P51955)
# PIM1 (human) = PIM1 (human) (UniProt P11309)
# PIP4K2B (human) = PIP4K2B (human) (UniProt P78356)
# PLK4 (human) = PLK4 (human) (UniProt O00444)
# RIOK1 (human) = RIOK1 (human) (UniProt Q9BRS2)
# RIOK3 (human) = RIOK3 (human) (UniProt O14730)
# RPS6KA5 KD2 (human) = RPS6KA5 KD2 (human) (UniProt O75582)
# SRPK3 (human) = SRPK3 (human) (UniProt Q9UPE1)
# STK17A (human) = STK17A (human) (UniProt Q9UEE5)
# TAOK1 (human) = TAOK1 (human) (UniProt Q7L7X3)
# TAOK3 (human) = TAOK3 (human) (UniProt Q9H2K8)
# ALK (human) = ALK (human) (UniProt Q9UM73)
# CAMKK2 (human) = CAMKK2 (human) (UniProt Q96RR4)
# DCLK1 (human) = DCLK1 (human) (UniProt O15075)
# DCLK2 (human) = DCLK2 (human) (UniProt Q8N568)
# FER (human) = FER (human) (UniProt P16591)
# GAK (human) = GAK (human) (UniProt O14976)
# INSRR (human) = INSRR (human) (UniProt P14616)
# MYLK (human) = MYLK (human) (UniProt Q15746)
# PLK1 (human) = PLK1 (human) (UniProt P53350)
# PLK3 (human) = PLK3 (human) (UniProt Q9H4B4)
# PRKD1 (human) = PRKD1 (human) (UniProt Q15139)
# PRKD2 (human) = PRKD2 (human) (UniProt Q9BZL6)
# PRKD3 (human) = PRKD3 (human) (UniProt O94806)
# PTK2 (human) = PTK2 (human) (UniProt Q05397)
# PTK2B (human) = PTK2B (human) (UniProt Q14289)
# RPS6KA2 KD2 (human) = RPS6KA2 KD2 (human) (UniProt Q15349)
# RPS6KA6 KD2 (human) = RPS6KA6 KD2 (human) (UniProt Q9UK32)
# SLK (human) = SLK (human) (UniProt Q9H2G2)
# STK33 (human) = STK33 (human) (UniProt Q9BYT3)
# TTK (human) = TTK (human) (UniProt P33981)
# ULK1 (human) = ULK1 (human) (UniProt O75385)
# ULK2 (human) = ULK2 (human) (UniProt Q8IYT8)
# [2] = system: EGFR (human), P00533 [747-751 del / S ins]
# [3] = system: EGFR (human), P00533 [752-759 del]
# [4] = system: EGFR (human), P00533 [A750P; 747-749 del]
# [5] = system: EGFR (human), P00533 [G719C; 746-750 del]
# [6] = system: EGFR (human), P00533 [L858R]
# [7] = system: EGFR (human), P00533 [L861Q]
# [8] = system: EGFR (human), P00533 [P753S; 747-752 del]
# RPS6KA1 KD2 (human) = RPS6KA1 KD2 (human) (UniProt Q15418)
# Sequence of ALK (human) (Q9UM73 whole entry, looked up): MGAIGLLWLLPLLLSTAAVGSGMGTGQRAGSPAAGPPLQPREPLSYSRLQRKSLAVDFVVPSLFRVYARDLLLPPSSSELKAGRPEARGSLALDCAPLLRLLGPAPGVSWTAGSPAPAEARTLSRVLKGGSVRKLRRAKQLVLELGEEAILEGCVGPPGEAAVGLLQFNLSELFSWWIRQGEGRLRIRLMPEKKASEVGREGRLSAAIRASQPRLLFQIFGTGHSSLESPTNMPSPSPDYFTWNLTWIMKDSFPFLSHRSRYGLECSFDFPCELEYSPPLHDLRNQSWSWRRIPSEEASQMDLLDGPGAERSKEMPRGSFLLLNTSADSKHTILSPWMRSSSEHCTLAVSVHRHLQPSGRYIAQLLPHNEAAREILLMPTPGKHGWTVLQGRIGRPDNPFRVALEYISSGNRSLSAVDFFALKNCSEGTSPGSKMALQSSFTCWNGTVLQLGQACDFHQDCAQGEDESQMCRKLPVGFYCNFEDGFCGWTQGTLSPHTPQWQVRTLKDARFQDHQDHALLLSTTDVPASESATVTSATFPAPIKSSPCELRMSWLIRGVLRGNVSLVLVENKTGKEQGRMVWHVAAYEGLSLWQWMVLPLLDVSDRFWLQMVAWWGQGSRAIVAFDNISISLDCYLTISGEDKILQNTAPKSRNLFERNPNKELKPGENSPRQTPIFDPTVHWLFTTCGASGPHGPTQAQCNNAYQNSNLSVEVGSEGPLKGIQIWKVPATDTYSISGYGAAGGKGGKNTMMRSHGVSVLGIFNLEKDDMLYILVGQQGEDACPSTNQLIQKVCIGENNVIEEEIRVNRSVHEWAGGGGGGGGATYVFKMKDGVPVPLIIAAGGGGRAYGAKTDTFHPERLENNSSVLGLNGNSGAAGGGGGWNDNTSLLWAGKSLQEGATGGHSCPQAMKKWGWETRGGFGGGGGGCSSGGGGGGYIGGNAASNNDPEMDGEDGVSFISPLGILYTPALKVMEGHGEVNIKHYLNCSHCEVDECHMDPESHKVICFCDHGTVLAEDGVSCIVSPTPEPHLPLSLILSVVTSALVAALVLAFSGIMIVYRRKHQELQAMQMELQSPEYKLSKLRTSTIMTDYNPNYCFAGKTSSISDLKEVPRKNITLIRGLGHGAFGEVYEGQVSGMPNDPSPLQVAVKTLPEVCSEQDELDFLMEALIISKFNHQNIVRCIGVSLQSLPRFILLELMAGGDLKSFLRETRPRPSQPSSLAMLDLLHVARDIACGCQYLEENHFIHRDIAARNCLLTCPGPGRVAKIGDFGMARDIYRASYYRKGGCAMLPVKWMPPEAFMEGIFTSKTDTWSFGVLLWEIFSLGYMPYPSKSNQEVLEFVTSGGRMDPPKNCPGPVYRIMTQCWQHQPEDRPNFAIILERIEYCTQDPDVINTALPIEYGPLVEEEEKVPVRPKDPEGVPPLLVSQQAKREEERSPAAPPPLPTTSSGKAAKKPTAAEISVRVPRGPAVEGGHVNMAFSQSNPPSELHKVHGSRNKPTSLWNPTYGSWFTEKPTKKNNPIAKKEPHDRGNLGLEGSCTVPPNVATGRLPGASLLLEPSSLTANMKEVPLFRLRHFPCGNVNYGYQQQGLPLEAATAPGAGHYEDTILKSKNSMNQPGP
# Sequence of STK33 (human) (Q9BYT3 whole entry, looked up): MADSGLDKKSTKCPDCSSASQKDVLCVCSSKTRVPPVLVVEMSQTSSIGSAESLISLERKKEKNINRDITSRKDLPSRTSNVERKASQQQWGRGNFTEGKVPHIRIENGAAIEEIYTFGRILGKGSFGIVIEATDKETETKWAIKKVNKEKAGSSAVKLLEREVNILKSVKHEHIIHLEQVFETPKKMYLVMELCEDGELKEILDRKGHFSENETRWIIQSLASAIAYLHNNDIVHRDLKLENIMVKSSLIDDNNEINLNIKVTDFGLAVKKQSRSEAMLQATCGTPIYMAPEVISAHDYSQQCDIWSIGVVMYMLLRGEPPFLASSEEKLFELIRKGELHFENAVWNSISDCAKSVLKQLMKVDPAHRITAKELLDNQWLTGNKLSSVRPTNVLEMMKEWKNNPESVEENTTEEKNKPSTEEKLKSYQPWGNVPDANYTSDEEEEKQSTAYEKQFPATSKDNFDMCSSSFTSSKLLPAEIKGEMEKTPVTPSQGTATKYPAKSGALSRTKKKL
# Sequence of PTK2B (human) (Q14289 whole entry, looked up): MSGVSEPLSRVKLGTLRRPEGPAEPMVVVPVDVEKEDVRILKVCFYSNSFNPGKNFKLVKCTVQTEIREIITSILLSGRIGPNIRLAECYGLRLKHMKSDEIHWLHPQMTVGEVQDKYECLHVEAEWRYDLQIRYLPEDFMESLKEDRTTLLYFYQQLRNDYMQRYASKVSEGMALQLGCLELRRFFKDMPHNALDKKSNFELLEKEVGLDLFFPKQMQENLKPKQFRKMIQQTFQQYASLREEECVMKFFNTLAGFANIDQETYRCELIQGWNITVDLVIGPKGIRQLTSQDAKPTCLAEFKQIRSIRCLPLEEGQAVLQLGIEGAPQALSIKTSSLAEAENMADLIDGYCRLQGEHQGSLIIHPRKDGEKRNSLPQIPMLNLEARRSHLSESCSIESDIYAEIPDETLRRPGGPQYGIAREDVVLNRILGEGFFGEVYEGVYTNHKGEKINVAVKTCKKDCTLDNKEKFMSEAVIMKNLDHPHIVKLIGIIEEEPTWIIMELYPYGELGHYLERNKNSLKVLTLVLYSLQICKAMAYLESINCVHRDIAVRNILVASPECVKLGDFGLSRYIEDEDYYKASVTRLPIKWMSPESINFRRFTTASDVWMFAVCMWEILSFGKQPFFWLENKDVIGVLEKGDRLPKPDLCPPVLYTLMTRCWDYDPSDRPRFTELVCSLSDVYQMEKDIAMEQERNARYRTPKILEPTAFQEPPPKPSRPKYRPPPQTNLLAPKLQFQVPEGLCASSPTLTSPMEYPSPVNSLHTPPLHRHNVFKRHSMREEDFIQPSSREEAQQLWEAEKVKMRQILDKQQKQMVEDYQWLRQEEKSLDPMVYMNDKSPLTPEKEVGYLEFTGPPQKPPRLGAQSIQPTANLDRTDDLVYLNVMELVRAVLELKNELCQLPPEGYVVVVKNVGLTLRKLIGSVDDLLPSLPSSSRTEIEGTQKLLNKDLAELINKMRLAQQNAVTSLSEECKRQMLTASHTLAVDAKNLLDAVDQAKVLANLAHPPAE
# Sequence of MINK1 (human) (Q8N4C8 whole entry, looked up): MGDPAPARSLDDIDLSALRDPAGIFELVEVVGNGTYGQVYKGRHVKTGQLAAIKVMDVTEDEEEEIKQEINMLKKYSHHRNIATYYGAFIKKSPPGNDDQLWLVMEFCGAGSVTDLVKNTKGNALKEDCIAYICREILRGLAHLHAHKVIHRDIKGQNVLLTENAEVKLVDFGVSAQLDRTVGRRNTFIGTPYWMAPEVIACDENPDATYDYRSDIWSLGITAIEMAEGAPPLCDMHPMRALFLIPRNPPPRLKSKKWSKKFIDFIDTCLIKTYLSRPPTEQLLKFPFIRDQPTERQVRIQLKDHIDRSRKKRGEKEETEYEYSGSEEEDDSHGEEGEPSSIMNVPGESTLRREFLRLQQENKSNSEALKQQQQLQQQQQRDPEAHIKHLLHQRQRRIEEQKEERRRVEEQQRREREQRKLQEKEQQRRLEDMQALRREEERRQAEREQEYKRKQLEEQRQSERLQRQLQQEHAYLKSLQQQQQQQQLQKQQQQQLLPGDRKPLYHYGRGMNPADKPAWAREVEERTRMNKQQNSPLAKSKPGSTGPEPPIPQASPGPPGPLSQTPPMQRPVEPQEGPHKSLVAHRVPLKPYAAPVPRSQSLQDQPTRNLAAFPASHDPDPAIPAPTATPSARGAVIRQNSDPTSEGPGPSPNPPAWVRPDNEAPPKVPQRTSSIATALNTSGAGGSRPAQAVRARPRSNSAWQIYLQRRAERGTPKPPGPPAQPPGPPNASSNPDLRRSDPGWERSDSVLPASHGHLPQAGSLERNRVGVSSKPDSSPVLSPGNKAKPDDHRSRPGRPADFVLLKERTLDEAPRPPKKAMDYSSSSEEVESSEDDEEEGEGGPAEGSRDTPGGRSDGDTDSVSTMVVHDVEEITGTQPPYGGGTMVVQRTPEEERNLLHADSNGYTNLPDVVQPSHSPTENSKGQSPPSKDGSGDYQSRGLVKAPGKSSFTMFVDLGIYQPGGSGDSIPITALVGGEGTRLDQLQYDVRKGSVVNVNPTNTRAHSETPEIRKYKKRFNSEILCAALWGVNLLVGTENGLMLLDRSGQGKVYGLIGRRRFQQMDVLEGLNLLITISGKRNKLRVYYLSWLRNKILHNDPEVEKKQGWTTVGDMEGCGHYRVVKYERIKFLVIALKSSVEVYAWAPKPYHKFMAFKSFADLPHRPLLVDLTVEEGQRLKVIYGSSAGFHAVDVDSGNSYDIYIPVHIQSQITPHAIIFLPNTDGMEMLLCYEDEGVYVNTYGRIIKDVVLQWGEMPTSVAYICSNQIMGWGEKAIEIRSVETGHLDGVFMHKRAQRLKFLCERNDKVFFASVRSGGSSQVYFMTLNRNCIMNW
# Sequence of PLK1 (human) (P53350 whole entry, looked up): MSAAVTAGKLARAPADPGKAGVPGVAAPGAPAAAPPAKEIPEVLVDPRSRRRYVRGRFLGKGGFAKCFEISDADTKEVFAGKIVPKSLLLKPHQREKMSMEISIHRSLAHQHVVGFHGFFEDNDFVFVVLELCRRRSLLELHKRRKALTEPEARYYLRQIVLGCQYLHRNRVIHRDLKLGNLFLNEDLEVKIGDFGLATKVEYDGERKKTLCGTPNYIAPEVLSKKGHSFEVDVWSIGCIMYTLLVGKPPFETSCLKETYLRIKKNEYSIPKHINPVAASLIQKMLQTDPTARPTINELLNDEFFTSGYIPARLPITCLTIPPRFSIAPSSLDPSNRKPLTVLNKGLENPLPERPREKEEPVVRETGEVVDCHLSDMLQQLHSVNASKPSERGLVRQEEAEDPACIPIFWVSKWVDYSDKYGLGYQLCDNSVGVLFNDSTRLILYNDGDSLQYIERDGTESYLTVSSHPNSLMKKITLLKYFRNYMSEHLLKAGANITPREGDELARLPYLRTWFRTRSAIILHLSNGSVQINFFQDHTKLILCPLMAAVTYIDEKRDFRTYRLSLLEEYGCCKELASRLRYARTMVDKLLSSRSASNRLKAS
smiles,measurement,setting,value
O=C1NC(=O)/C(=C/c2cc(-c3ccc(N4CCNCC4)nc3)c[nH]c2=O)S1,"kinase still bound, per cent of control",DAPK1 (human),4.4%
same,"kinase still bound, per cent of control",DAPK2 (human),10%
same,"kinase still bound, per cent of control",DAPK3 (human),10%
same,"kinase still bound, per cent of control",PIK3CB (human),6.2%
same,"kinase still bound, per cent of control",PIM2 (human),14%
same,"kinase still bound, per cent of control",PIM3 (human),30%
same,"kinase still bound, per cent of control",RPS6KA4 KD2 (human),3.2%
same,"kinase still bound, per cent of control",STK17B (human),18%
same,"kinase still bound, per cent of control",[1],14%
same,"kinase still bound, per cent of control",ZAP70 (human),11%
N=C1NC(=O)/C(=C/c2c[nH]c(=O)c(-c3ccc(S(N)(=O)=O)cc3)c2)S1,"kinase still bound, per cent of control",AAK1 (human),13%
same,"kinase still bound, per cent of control",ACVR2A (human),25%
same,"kinase still bound, per cent of control",ACVR2B (human),16%
same,"kinase still bound, per cent of control",BMP2K (human),13%
same,"kinase still bound, per cent of control",BMPR1B (human),5.7%
same,"kinase still bound, per cent of control",CDK7 (human),26%
same,"kinase still bound, per cent of control",CHUK (human),18%
same,"kinase still bound, per cent of control",CLK1 (human),16%
same,"kinase still bound, per cent of control",CLK2 (human),5.1%
same,"kinase still bound, per cent of control",CLK3 (human),3.5%
same,"kinase still bound, per cent of control",CLK4 (human),28%
same,"kinase still bound, per cent of control",CSNK2A1 (human),26%
same,"kinase still bound, per cent of control",CSNK2A2 (human),25%
same,"kinase still bound, per cent of control",DAPK1 (human),12%
same,"kinase still bound, per cent of control",DAPK2 (human),5.2%
same,"kinase still bound, per cent of control",DAPK3 (human),9.4%
same,"kinase still bound, per cent of control",DYRK1B (human),23%
same,"kinase still bound, per cent of control",HIPK1 (human),16%
same,"kinase still bound, per cent of control",MAP2K3 (human),2.2%
same,"kinase still bound, per cent of control",MAP2K4 (human),24%
same,"kinase still bound, per cent of control",MAPK15 (human),3.3%
same,"kinase still bound, per cent of control",MINK1 (human),24%
same,"kinase still bound, per cent of control",NEK2 (human),30%
same,"kinase still bound, per cent of control",PIM1 (human),16%
same,"kinase still bound, per cent of control",PIM2 (human),4.8%
same,"kinase still bound, per cent of control",PIM3 (human),12%
same,"kinase still bound, per cent of control",PIP4K2B (human),22%
same,"kinase still bound, per cent of control",PLK4 (human),24%
same,"kinase still bound, per cent of control",RIOK1 (human),31%
same,"kinase still bound, per cent of control",RIOK3 (human),17%
same,"kinase still bound, per cent of control",RPS6KA4 KD2 (human),0.9%
same,"kinase still bound, per cent of control",RPS6KA5 KD2 (human),2.2%
same,"kinase still bound, per cent of control",SRPK3 (human),33%
same,"kinase still bound, per cent of control",STK17A (human),23%
same,"kinase still bound, per cent of control",STK17B (human),28%
same,"kinase still bound, per cent of control",TAOK1 (human),4.2%
same,"kinase still bound, per cent of control",TAOK3 (human),22%
COc1cc(N2CCN(C)CC2)ccc1Nc1ncc2c(n1)N(C1CCCC1)C(C)CC(=O)N2C (centres undefined),"kinase still bound, per cent of control",ALK (human),6.6%
same,"kinase still bound, per cent of control",CAMKK2 (human),24%
same,"kinase still bound, per cent of control",DCLK1 (human),1.4%
same,"kinase still bound, per cent of control",DCLK2 (human),4.5%
same,"kinase still bound, per cent of control",FER (human),25%
same,"kinase still bound, per cent of control",GAK (human),1.2%
same,"kinase still bound, per cent of control",INSRR (human),33%
same,"kinase still bound, per cent of control",MINK1 (human),31%
same,"kinase still bound, per cent of control",MYLK (human),7.6%
same,"kinase still bound, per cent of control",PLK1 (human),9%
same,"kinase still bound, per cent of control",PLK3 (human),20%
same,"kinase still bound, per cent of control",PRKD1 (human),24%
same,"kinase still bound, per cent of control",PRKD2 (human),29%
same,"kinase still bound, per cent of control",PRKD3 (human),14%
same,"kinase still bound, per cent of control",PTK2 (human),0.95%
same,"kinase still bound, per cent of control",PTK2B (human),4.6%
same,"kinase still bound, per cent of control",RPS6KA2 KD2 (human),12%
same,"kinase still bound, per cent of control",RPS6KA6 KD2 (human),16%
same,"kinase still bound, per cent of control",SLK (human),3.6%
same,"kinase still bound, per cent of control",STK33 (human),5.4%
same,"kinase still bound, per cent of control",TTK (human),1.4%
same,"kinase still bound, per cent of control",ULK1 (human),19%
same,"kinase still bound, per cent of control",ULK2 (human),1.3%
COc1cc(C(=O)NC2CCN(C)CC2)ccc1Nc1ncc2c(n1)N(CCc1ccccc1)CCC(=O)N2C,"kinase still bound, per cent of control",ALK (human),22%
same,"kinase still bound, per cent of control",[2],28%
same,"kinase still bound, per cent of control",[3],33%
same,"kinase still bound, per cent of control",[4],19%
same,"kinase still bound, per cent of control",[5],23%
same,"kinase still bound, per cent of control",[6],22%
same,"kinase still bound, per cent of control",[7],28%
same,"kinase still bound, per cent of control",[8],31%
same,"kinase still bound, per cent of control",GAK (human),6.4%
same,"kinase still bound, per cent of control",MYLK (human),31%
same,"kinase still bound, per cent of control",PLK1 (human),1.9%
same,"kinase still bound, per cent of control",PLK3 (human),6.5%
same,"kinase still bound, per cent of control",PTK2 (human),34%
same,"kinase still bound, per cent of control",PTK2B (human),17%
same,"kinase still bound, per cent of control",RPS6KA1 KD2 (human),32%
same,"kinase still bound, per cent of control",RPS6KA2 KD2 (human),32%
same,"kinase still bound, per cent of control",SLK (human),22%
same,"kinase still bound, per cent of control",STK33 (human),13%
same,"kinase still bound, per cent of control",TTK (human),5.2%
